Legend:
Format in all cases: cell-based
[1] = system: SF-295; experiment: NCI 60 panel: SF-295 (CNS Cancer)
Description: (§5) TGI means the drug concentration resulting in total growth inhibition or “cytostasis.” LC50 is the concentration of drug resulting in a 50% reduction in the measured cytosolic ATP at the end of the drug treatment as compared to that at the beginning, indicating a net loss of cells following treatment (cytotoxicity).

[2] = system: MALME-3M; experiment: NCI 60 panel: MALME-3M (Melanoma)
Description: as §5

[3] = system: UO-31; experiment: NCI 60 panel: UO-31 (Renal Cancer)
Description: as §5

[4] = system: COLO 205; experiment: NCI 60 panel: COLO 205 (Colon Cancer)
Description: as §5

[5] = system: HCT-15; experiment: NCI 60 panel: HCT-15 (Colon Cancer)
Description: as §5

[6] = system: U251MG; experiment: Complementary DBM in vitro profiling: U251MG (CNS Cancer)
Experimental: (§1) The compounds described herein are effective for inhibiting cellular proliferation in hyperproliferative cell types. To study the effects of these compounds, an assay was developed to differentiate the effects of the compounds on proliferating versus confluent cells. The assay design generates a proliferating density 24 hours after seeding and provides a 3-day active cell growth/doubling window in which to gauge the anti-proliferative effect of the compounds described herein. […] In this 3-day growth window, cell number increases with daily doublings across the 72-hour period (see FIG. 1).
(§2) In each assay design, compounds were added at the 24-hour timepoint after cell seeding. The effect of the compounds, relative to vehicle control and to VelCade (a proteasome inhibitor approved in the U.S. for treating relapsed multiple myeloma and mantle cell lymphoma) as a positive control, was assessed across the 3-day growth window for proliferating cells and on an already near confluent culture of cells for the same time period. Normal cells were handled in the same manner, with some adjustment of seeding density needed in select cases. […]
(§3) Cell number at the end of the assay was determined using the CELLTITER-GLO Luminescent Cell Viability Assay (Promega; Madison, Wis.). The CELLTITER-GLO Luminescent Cell Viability Assay is a homogeneous method of determining the number of viable cells in culture based on quantitation of the ATP present, an indicator of metabolically active cells. IC50 values were calculated. […]
(§4) For a typical screening experiment to identify the compounds, cells were seeded into 96- or 384-well microtiter plates at plating densities pre-determined for each cell line to ensure drug exposure occurs during the proliferative phase well before confluency is reached. […] Values were calculated for each of these three parameters if the level of activity was reached; however, if the effect was not reached or was exceeded, the value for that parameter was expressed as greater or less than the maximum or minimum concentration tested.

[7] = system: HOP-92; experiment: NCI 60 panel: HOP-92 (Non-Small Cell Lung Cancer)
Description: as §5

[8] = system: ACHN; experiment: NCI 60 panel: ACHN (Renal Cancer)
Description: as §5

[9] = system: primary human ADPKD cystic epithelial cell lines, ARCaP-M, CAKI-1; experiment: Viability in cystic ADPKD cells, prostate and kidney cancer lines
Experimental: as §1
In each assay design, compounds were added at the 24-hour timepoint after cell seeding. The effect of the compounds, relative to vehicle control and to VelCade (a proteasome inhibitor approved in the U.S. for treating relapsed multiple myeloma and mantle cell lymphoma) as a positive control, was assessed across the 3-day growth window for proliferating cells and on an already near confluent culture of cells for the same time period. Normal cells were handled in the same manner, with some adjustment of seeding density needed in select cases. This assay design holds for the data series presented below.
Cell number at the end of the assay was determined using the CELLTITER-GLO Luminescent Cell Viability Assay (Promega; Madison, Wis.). The CELLTITER-GLO Luminescent Cell Viability Assay is a homogeneous method of determining the number of viable cells in culture based on quantitation of the ATP present, an indicator of metabolically active cells. IC50 values were calculated. Cell number (number of cells per well) was converted to the % of DMSO matched controls. Each measurement was performed in triplicate. Typical dosage ranges tested were from 250 picomolar to 50 micromolar.
The compounds as described herein were tested on primary human ADPKD cystic epithelial cell lines as well as two common cancer cell lines from the prostate (ARCaP-M) and kidney (CAKI-1).

[10] = system: U251; experiment: NCI 60 panel: U251 (CNS Cancer)
Description: as §5

[11] = system: HOP-62; experiment: NCI 60 panel: HOP-62 (Non-Small Cell Lung Cancer)
Description: as §5

[12] = system: UACC-62; experiment: NCI 60 panel: UACC-62 (Melanoma)
Description: as §5

[13] = system: RPMI-8226; experiment: NCI 60 panel: RPMI-8226 (Leukemia)
Description: as §5

[14] = system: SK-MEL-2; experiment: NCI 60 panel: SK-MEL-2 (Melanoma)
Description: as §5

[15] = system: c-Jun phosphorylation; experiment: Intracellular signaling molecule phospho-array; settings: human hyperproliferative GBM cancer cells; effect requiring 24 hours
Experimental: An intracellular signaling molecule phospho-array was performed in compound-treated human hyperproliferative GBM cancer cells and in vehicle-treated human hyperproliferative GBM cancer cells. The tested compounds included Compound DBM 228 (002-N8-28), Compound DBM 328 (003-8COOH), and Compound DBM 308 (003-8Cl). DMSO served as the vehicle control. The numbers reflect pairs of spots in the typical dot blots that correspond to major kinases and other signaling proteins. Compound DBM 328 (003-8COOH) is a negative control for this array experiment to complement the DMSO vehicle control.

[16] = system: OVCAR-5; experiment: NCI 60 panel: OVCAR-5 (Ovarian Cancer)
Description: as §5

[17] = system: U266; experiment: Complementary DBM in vitro profiling: U266 (Hematologic Cancer)
Experimental: as §1, §2, §3, §4

[18] = system: CAKI-1; experiment: Complementary DBM in vitro profiling: CAKI-1 (Renal Cancer)
Experimental: as §1, §2, §3, §4

[19] = system: IGROV1; experiment: NCI 60 panel: IGROV1 (Ovarian Cancer)
Description: as §5

[20] = system: FaDu; experiment: Complementary DBM in vitro profiling: FaDu (Hypopharyngeal Cancer)
Experimental: as §1, §2, §3, §4

[21] = system: NCI-H322M; experiment: NCI 60 panel: NCI-H322M (Non-Small Cell Lung Cancer)
Description: as §5

[22] = read-out: LC50 (the source's name)

COc1ccccc1Nc1nc(-c2cc3cccc(N)c3oc2=O)cs1 [Compound DBM 228]
GI50 [1]: 0.0424 µM | TGI [1]: 1.49 µM | CC50 [1, 22]: 41.5 µM | GI50 [2]: 16.8 µM | TGI [2]: 49.6 µM | CC50 [2, 22]: > 100 µM | GI50 [3]: 1.46 µM | TGI [3]: 43 µM | CC50 [3, 22]: > 100 µM | GI50 [4]: 0.337 µM | TGI [4]: 1.8 µM | CC50 [4, 22]: > 100 µM | GI50 [5]: 0.128 µM | TGI [5]: 17.3 µM | CC50 [5, 22]: > 100 µM | GI50 [6]: 0.197 µM | TGI [6]: >30 µM | CC50 [6, 22]: > 30 µM | GI50 [7]: 1.45 µM | TGI [7]: 24.7 µM | CC50 [7, 22]: > 100 µM | GI50 [8]: 1.49 µM | TGI [8]: 15.9 µM | CC50 [8, 22]: 42.7 µM | effect on cells, in words ([9]; at and around the 1 micromolar dose): cytostatic plateau | effect on cells, in words ([9]; higher mid-micromolar concentrations): cytotoxic effect | effect on cells, in words ([9]; nanomolar ranges, 12-point CRC): growth arrested but not killed | GI50 [10]: 0.0468 µM | TGI [10]: 10.6 µM | CC50 [10, 22]: 35.7 µM | GI50 [11]: 0.537 µM | TGI [11]: 44.8 µM | CC50 [11, 22]: > 100 µM | GI50 [12]: 0.0511 µM | LC50 (lethal concentration, 50% net cell kill) [12]: > 100 µM | TGI [12]: 28.2 µM | GI50 [13]: 0.238 µM | TGI [13]: 43.9 µM | CC50 [13, 22]: > 100 µM | GI50 [14]: 0.086 µM | TGI [14]: 28.4 µM | CC50 [14, 22]: 99.5 µM | effect on c-Jun phosphorylation, in words [15]: potentiation of c-Jun phosphorylation | GI50 [16]: 0.592 µM | TGI [16]: 15.7 µM | CC50 [16, 22]: 51.9 µM | GI50 [17]: 0.0796 µM | TGI [17]: 0.116 µM | CC50 [17, 22]: 0.161 µM | GI50 [18]: 0.142 µM | TGI [18]: 1.92 µM | CC50 [18, 22]: 5.21 µM | GI50 [19]: 1.23 µM | TGI [19]: 23.4 µM | CC50 [19, 22]: > 100 µM | GI50 [20]: 1.4 µM | TGI [20]: 8.74 µM | CC50 [20, 22]: 27.5 µM | GI50 [21]: 0.672 µM | TGI [21]: 25.9 µM | CC50 [21, 22]: 93.3 µM
